Patent US20250214993A1, “AROMATIC RING COMPOUND AND USE THEREOF” (SHANGHAI SHIJIANG BIOTECHNOLOGY CO., LTD, priority 2022, published 2025)

Tests used:
Assay type in all cases: cell-based
[1] = system: Con-NCI-H82 cell; experiment: Cell viability (Promega CellTiter-Glo, intracellular ATP), IC50 on Con-NCI-H82 cell; conditions: Homo sapiens; normal untreated NCI-H82 cell (control)
Source text: (§1) The expression of NNMT protein in NCI-H82 cell was overexpressed by inserting the NNMT gene into NCI-H82 cell using a viral vector, and the NNMT protein-overexpressing NCI-H82 cell (ov-NNMT NCI-H82 cell) was obtained. The normal and untreated NCI-H82 cell (Con-NCI-H82 cell) was used as control. The expressing content of NNMT protein in the ov-NNMT NCI-H82 cell and Con-NCI-H82 cell was detected using Western Blot assay (as shown in FIG. 1), it could be seen from FIG. 1 that the NNMT protein was overexpressed in the ov-NNMT NCI-H82 cell compared with the expression level of NNMT protein in the Con-NCI-H82 cell.
(§2) The cell viability was detected using the Promega CellTiter-Glo kit which reflected cell viability by measuring intracellular ATP content. The Con-NCI-H82 cell and ov-NNMT NCI-H82 cell was cultured in 10% fetal bovine serum-containing RPMI1640 medium (+P/S).

[2] = system: ov-NNMT NCI-H82 cell; experiment: Cell viability (Promega CellTiter-Glo, intracellular ATP), IC50 on NNMT-overexpressing NCI-H82 cell; conditions: Homo sapiens; NCI-H82 cell overexpressing NNMT protein
Source text: as §1, §2

[3] = system: mPTP-active Daoy cell; experiment: Cell viability (Promega CellTiter-Glo), IC50 on mPTP-active Daoy cell; conditions: Homo sapiens; Daoy cell transfected with empty virus vector
[4] = system: mPTP-inactive Daoy cell; experiment: Cell viability (Promega CellTiter-Glo), IC50 on mPTP-inactive Daoy cell (PPIF shRNA); conditions: Homo sapiens; Daoy cell transfected with PPIF shRNA vector

| SMILES | IC50 [1] | IC50 [2] | IC50 [3] | IC50 [4] |
| --- | --- | --- | --- | --- |
| Cc1ccc(C(=O)C[n+]2ccc3c(c2)CCN3Cc2ccccc2)cc1 [AB24995] | 920 nM | 4150 nM | 6320 nM | 1980 nM |
| O=C1c2ccc(OC(F)(F)F)cc2CCC1[n+]1ccc2c(ccn2Cc2ccccc2)c1 (stereo not drawn) [AB24997] | 498 nM | 3120 nM | 8560 nM | 2340 nM |
| O=C1c2ccc(OC(F)(F)F)cc2CCC1[n+]1ccc2c(c1)CC(c1ccccc1)N2 (stereo not drawn) [AB27101] | 750 nM | 2310 nM | 5680 nM | 1930 nM |
| O=C(C[n+]1ccc2c(c1)CCC(c1ccccc1)N2)c1ccc(OC(F)(F)F)cc1 (stereo not drawn) [AB27103] | 1480 nM | 11000 nM | 8980 nM | 4090 nM |
| O=C1c2cc(OC(F)(F)F)ccc2CCC1[n+]1ccc2c(c1)CCC(c1ccccc1)N2 (stereo not drawn) [AB27132] | 917 nM | 4870 nM | 7950 nM | 3270 nM |
| O=C1c2cc(Cl)ccc2CCC1[n+]1ccc(NCc2ccccc2)nc1 (stereo not drawn) [AB27138] | 1100 nM | 9820 nM | 8820 nM | 3620 nM |
| O=C1c2cc(Cl)ccc2CCC1[n+]1cnc2c(ccn2Cc2ccccc2)c1 (stereo not drawn) [AB27140] | 182 nM | 1580 nM | 3660 nM | 1480 nM |
| CCc1cn(Cc2ccccc2)c2cc[n+](C3CCc4ccc(Cl)cc4C3=O)cc12 (stereo not drawn) [AB27171] | 63 nM | 1050 nM | 1940 nM | 690 nM |
| O=C1c2cc(Cl)ccc2CCC1[n+]1ccc2c(c1)c(Cl)cn2Cc1ccccc1 (stereo not drawn) [AB27172] | 203 nM | 2040 nM | 3940 nM | 1380 nM |
| O=C1c2cc(Cl)ccc2CCC1[n+]1ccc2c(c1)c(F)cn2Cc1ccccc1 (stereo not drawn) [AB27173] | 135 nM | 2030 nM | 3430 nM | 1020 nM |
| Cc1cn(Cc2ccccc2)c2cc[n+](C3CCc4ccc(OC(F)(F)F)cc4C3=O)cc12 (stereo not drawn) [AB27175] | 226 nM | 2860 nM | 3860 nM | 1230 nM |
| Cc1ccc2c(c1)CCC(n1ccc3c[n+](C(C)c4ccccc4)ccc31)C2 (stereo not drawn) [AB27181] | 17 nM | 245 nM | 190 nM | 70 nM |
| O=C1c2cc(Cl)ccc2CCC1n1ccc2c[n+](Cc3ccccc3)ccc21 (stereo not drawn) [AB27187] | 14 nM | 252 nM | 210 nM | 50 nM |
| Cc1cn(C2CCc3ccc(Cl)cc3C2=O)c2cc[n+](Cc3ccccc3)cc12 (stereo not drawn) [AB27188] | 14 nM | 214 nM | 230 nM | 40 nM |
| O=C1c2cc(C(F)(F)F)ccc2CCC1n1ccc2c[n+](Cc3ccccc3)ccc21 (stereo not drawn) [AB27190] | 13 nM | 182 nM | 130 nM | 40 nM |
| O=C1c2cc(OC(F)(F)F)ccc2CCC1n1ccc2c[n+](Cc3ccccc3)ccc21 (stereo not drawn) [AB27191] | 10 nM | 184 nM | 250 nM | 40 nM |
| Cc1ccc2c(c1)C(=O)C(n1ccc3c[n+](Cc4ccccc4)ccc31)CC2 (stereo not drawn) [AB27192] | 12 nM | 214 nM | 190 nM | 30 nM |
| Cc1ccc2c(c1)CCC(n1ccc3c[n+](Cc4ccccc4)ccc31)C2=O (stereo not drawn) [AB27193] | 9 nM | 154 nM | 170 nM | 30 nM |
| O=C1c2cc(Cl)ccc2CCC1[n+]1ccc2cn(-c3ccccc3)cc2c1 (stereo not drawn) [AB27196] | 577 nM | 5510 nM | 6570 nM | 2080 nM |
| O=C1c2cc(Cl)ccc2CCC1[n+]1ccc2cn(Cc3ccccc3)cc2c1 (stereo not drawn) [AB27197] | 174 nM | 1700 nM | 3570 nM | 1020 nM |

| SMILES | IC50 [1] | IC50 [2] | IC50 [3] | IC50 [4] |
| --- | --- | --- | --- | --- |
| CN1c2nc[n+](C3CCc4ccc(Cl)cc4C3=O)cc2CCC1c1ccccc1 (stereo not drawn) [AB27198] | 700 nM | 3550 nM | 7550 nM | 1890 nM |
| O=C1c2sccc2CCC1[n+]1ccc2c(ccn2Cc2ccccc2)c1 (stereo not drawn) [AB27200] | 1120 nM | 5680 nM | 6030 nM | 2150 nM |
| Cc1c2ccn(Cc3ccccc3)c2cc[n+]1C1CCc2ccc(Cl)cc2C1=O (stereo not drawn) [AB27219] | 85 nM | 1320 nM | 5090 nM | 2120 nM |
| CC(=O)N(Cc1ccccc1)c1cc[n+](CC(=O)c2ccc(C)cc2)c(C)c1 [AB27222] | 56 nM | 857 nM | 1750 nM | 660 nM |
| CC(=O)N(Cc1ccccc1)c1cc[n+](C2CCc3ccc(Cl)cc3C2=O)cc1 (stereo not drawn) [AB27230] | 126 nM | 1260 nM | 2920 nM | 920 nM |
| CCCCn1ccc2c[n+](C3CCc4ccc(Cl)cc4C3=O)ccc21 (stereo not drawn) [AB27251] | 482 nM | 2680 nM | 7890 nM | 1960 nM |
| Cc1ccc(C(=O)Cn2ccc3c[n+](Cc4ccccc4)cc(C)c32)cc1 [AB27256] | 22 nM | 253 nM | 330 nM | 120 nM |
| Cc1c[n+](Cc2ccccc2)cc2ccn(CC(=O)c3cccc(Cl)c3)c12 [AB27257] | 75 nM | 968 nM | 2160 nM | 880 nM |
| Cc1ccc(C(=O)Cn2ccc3c[n+](C(C)c4ccccc4)ccc32)cc1 (stereo not drawn) [AB27261] | 23 nM | 381 nM | 380 nM | 180 nM |
| Cc1ccc(C(=O)Cn2c(C)cc3c[n+](Cc4ccccc4)ccc32)cc1 [AB27277] | 15 nM | 245 nM | 160 nM | 30 nM |
| Cc1ccc(C(=O)CNc2cc[n+](Cc3ccccc3)cc2)cc1 [AB27283] | 874 nM | 3380 nM | 10600 nM | 3240 nM |
| Cc1ccc(C(=O)C[n+]2ccc(N3CCc4ccccc43)cc2C)cc1 [AB27306] | 737 nM | 5460 nM | 9910 nM | 3230 nM |
| Cc1ccc(C(=O)C[n+]2ccc(N3CCCCC3)cc2)cc1 [AB27309] | 837 nM | 4860 nM | 8580 nM | 3370 nM |
| O=C1c2cc(Cl)ccc2CCC1n1ccc2c[n+](CC3CCCC3)ccc21 (stereo not drawn) [AB27316] | 167 nM | 1130 nM | 5890 nM | 1170 nM |
| Cc1ccc(C(=O)C[n+]2ccc(NCc3ccccc3)cc2C)c(F)c1 [AB27325] | 22 nM | 268 nM | 2010 nM | 380 nM |
| O=C(Cn1cnc2c[n+](Cc3ccccc3)ccc21)c1cccc(OC(F)(F)F)c1 [AB31702] | 5460 nM | 17500 nM |  |  |
| O=C(Cn1cnc2c[n+](Cc3ccccc3)ccc21)c1cccc(C(F)(F)F)c1 [AB31703] | 2140 nM | 12300 nM |  |  |
| O=C(Cn1ncc2c[n+](Cc3ccccc3)ccc21)c1ccc(C(F)(F)F)cc1 [AB31705] | 5370 nM | 19000 nM |  |  |
| Cc1ccc2c(c1)C(=O)C(n1ncc3c[n+](Cc4ccccc4)ccc31)CC2 (stereo not drawn) [AB31776] | 146 nM | 2550 nM |  |  |
| CC(c1ccccc1)[n+]1ccc2c(cnn2C2CCc3ccc(Cl)cc3C2=O)c1 (stereo not drawn) [AB31806] | 257 nM | 2960 nM |  |  |
